Reference: ChEMBL document CHEMBL1926606, “Cannabinomimetic lipid from a marine cyanobacterium” (J Nat Prod, 2011)
Activity calls are given as the source filed them. The calls are words filed in the database; no cut-off is given here.

Assays:
Cannabinoid receptor 2 = Cannabinoid receptor 2 (Homo sapiens, UniProt P34972); assay: Displacement of [3H]CP55940 from human recombinant CB2 receptor expressed in HEK293 cells after 90 mins; type: cell-based
Homo sapiens = species: Homo sapiens; assay: Selectivity ratio of IC50 for human recombinant CB1 receptor to IC50 for human recombinant CB2 receptor
Cannabinoid receptor 1 = Cannabinoid receptor 1 (Homo sapiens, UniProt P21554); assay: Displacement of [3H]CP55940 from human recombinant CB1 receptor expressed in HEK293 cells after 90 mins; type: cell-based
NCI-H460 [1] = assay: Cytotoxicity against human H460 cells assessed as cell survival at 50 ug/ml; type: functional; settings: read-out: Activity
NCI-H460 [2] = assay: Cytotoxicity against human H460 cells assessed as cell survival at 5 ug/ml; type: functional; settings: read-out: Activity
NCI-H460 [3] = assay: Cytotoxicity against human H460 cells assessed as cell survival up to 20 ug/ml; type: functional, cell-based

Cannabinoid receptor 1, sequence (P21554 whole entry): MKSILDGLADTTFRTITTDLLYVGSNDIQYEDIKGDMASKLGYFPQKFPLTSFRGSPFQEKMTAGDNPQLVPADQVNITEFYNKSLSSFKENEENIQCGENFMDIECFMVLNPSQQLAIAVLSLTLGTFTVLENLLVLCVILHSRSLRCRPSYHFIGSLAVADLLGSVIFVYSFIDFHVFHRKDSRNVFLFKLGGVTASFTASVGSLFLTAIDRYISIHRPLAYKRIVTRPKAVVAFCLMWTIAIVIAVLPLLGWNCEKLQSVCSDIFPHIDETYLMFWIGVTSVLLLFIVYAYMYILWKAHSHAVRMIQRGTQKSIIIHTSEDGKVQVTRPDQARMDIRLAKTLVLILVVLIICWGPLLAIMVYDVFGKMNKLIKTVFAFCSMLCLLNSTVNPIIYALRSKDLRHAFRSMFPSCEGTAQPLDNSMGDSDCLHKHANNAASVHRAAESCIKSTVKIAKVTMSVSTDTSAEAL
Cannabinoid receptor 2, sequence (P34972 whole entry): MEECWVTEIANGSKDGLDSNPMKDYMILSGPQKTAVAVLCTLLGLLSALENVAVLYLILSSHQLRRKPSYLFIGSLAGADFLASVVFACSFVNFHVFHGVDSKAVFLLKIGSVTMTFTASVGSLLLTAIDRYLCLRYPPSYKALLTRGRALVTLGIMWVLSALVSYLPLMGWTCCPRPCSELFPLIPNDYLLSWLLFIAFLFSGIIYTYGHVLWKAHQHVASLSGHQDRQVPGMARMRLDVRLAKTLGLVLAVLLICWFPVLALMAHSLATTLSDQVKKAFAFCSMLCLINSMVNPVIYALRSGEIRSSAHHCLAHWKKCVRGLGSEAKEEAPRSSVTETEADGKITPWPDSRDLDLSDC

Q: Which results are given for `CCCCCCCCCCCCC/C=C/CCC(=O)N(C)[C@H](CO)COC` [SERINOLAMIDE A]?
A: IC50 (Cannabinoid receptor 2): > 10 µM; Ratio IC50 (Homo sapiens): > 5; IC50 (Cannabinoid receptor 1): 2.3 µM; Ki (Cannabinoid receptor 1): 1.3 µM; viability at 50 µg/mL (NCI-H460 [1]): 0%; viability at 5 µg/mL (NCI-H460 [2]): 60%

Q: For `C=C(CCCCCCCCCCCCC)CCCC(=O)O/C=C\COC(C)=O`, which Activity (NCI-H460 [3]) is on record?
A: The Activity was “inactive”.

Q: And the IC50 (Cannabinoid receptor 2)?
A: The IC50 was over 10 µM.

Q: And the IC50 (Cannabinoid receptor 1)?
A: Its IC50 is over 10 µM.

Q: `CCCCC/C=C\C/C=C\C/C=C\C/C=C\CCCC(=O)N[C@@H](CO)C(=O)O` was tested. Which Ki (Cannabinoid receptor 2) did it give?
A: The Ki was over 10 µM.

Q: What about the Ki (Cannabinoid receptor 1) of the same molecule?
A: The Ki was over 10 µM.
